*1 amine or outer side, *2 acyl side, *3 side chain or, on linkers, in order; H or OH if unused. Where a SMILES comes first, the peptide text is derived from it. Bridges are numbered along the chain shown (N, C = ends). [ ]: non-standard residue; d: D form. The star is where a group is joined. Ethylenediamine = C(CN[*:2])N[*:1]; X1 = O=C(CC1(S[*:2])CCCCC1)[*:1]; Orn = NCCC[C@H](N)C(=O)O; βAla = NCCC(=O)O; NHBu = CCCCN*
Legend:
[1] = system: antidiuretic response to arginine vasopressin; assay: Antagonism of the antidiuretic response to arginine vasopressin (Anti-ADH); type: in vivo, rats; conditions: for Anti-ADH Potency pA2: estimated in vivo pA2
Protocol: Activity as antidiuretic agonists was determined by intravenous injection of the compounds being evaluated in ethanol-anesthesized water-loaded rats in accordance with Sawyer, Endocrinology, vol. 63 (1958) at 694. Antagonism of the antidiuretic response to subsequent injections of arginine vasopressin was tested by the method of Sawyer et al., Science, vol. 212 (1981) at 49.
(§1) Antagonistic potencies were determined and expressed as "effective doses" and pA2 values. The "effective dose" is defined as the dose (in nanomoles per kilogram) that reduces the response seen from 2x units of agonist injected 20 min after the dose of antagonist to the response with 1x units of agonist. Estimated in vivo "pA2 " values represent the negative logarithms of the effective doses, divided by the estimated volume of distribution (67 ml/kg).

[2] = system: vasopressor response to arginine vasopressin; assay: Antagonism to the vasopressor response (Anti-VP); type: in vivo; conditions: for Anti-VP Potency pA2 / Anti-VP pA2: estimated in vivo pA2; for Anti-VP pA2: Table 1
Protocol: Antagonism to the vasopressor response was estimated in accordance with Dyckes et al., J. Med. Chem., vol. 17 (1974) at 969. The values are expressed as pA2 values, defined as in Schild et al., Br. J. Pharmacol., vol. 2 (1947) at 189.
as §1

Row | Compound | Anti-ADH Potency pA2 ([1]; Table 2) | Anti-VP Potency pA2 ([2]; Table 2) | other results
1 | CCOc1ccc(C[C@H]2NC(=O)CC3(CCCCC3)SSC[C@@H](C(=O)N3CCC[C@H]3C(=O)N[C@@H](CCCNC(=N)N)C(=O)NCCC(=O)NC)NC(=O)[C@H](CC(N)=O)NC(=O)[C@H](C(C)C)NC(=O)[C@H](Cc3ccccc3)NC2=O)cc1 [1-(beta-mercapto-beta,beta-cyclopentamethyleneproprionic acid), 2-D-(O-ethyl)tyrosine, 4-valine, 9-beta-alanine-N-methylamide]-arginine vasopressin] ([dY](Et)FVNCPR[βAla]-NHMe; linker N-5 via X1) |  |  | Anti-ADH Potency pA2 ([1]; Table 4): 7.61 ± 0.02; Anti-VP Potency pA2 ([2]; Table 4, ^+ = mixed): 7.77 ± 0.05
2 | CC[C@H](C)[C@@H]1NC(=O)[C@H](Cc2ccccc2)NC(=O)[C@@H](Cc2ccccc2)NC(=O)CC2(CCCCC2)SSC[C@@H](C(=O)N2CCC[C@H]2C(=O)N[C@@H](CCCNC(=N)N)C(=O)N[C@@H](C)C(N)=O)NC(=O)[C@H](CC(N)=O)NC1=O [Ala(NH2), [1-(beta-mercapto-beta,beta-cyclopentamethylenepropionic acid), 2-D-phenylalanine, 4-isoleucine, 9-alaninamide]-arginine vasopressin] ([dF]FINCPRA-NH2; linker N-5 via X1) | 8.38 ± 0.13 | 7.67 ± 0.04 | 
3 | CC[C@H](C)[C@@H]1NC(=O)[C@H](Cc2ccccc2)NC(=O)[C@@H](Cc2ccccc2)NC(=O)CC2(CCCCC2)SSC[C@@H](C(=O)N2CCC[C@H]2C(=O)N[C@@H](CCCNC(=N)N)C(=O)N[C@@H](CCCNC(=N)N)C(N)=O)NC(=O)[C@H](CC(N)=O)NC1=O [Arg(NH2), [1-(beta-mercapto-beta,beta-cyclopentamethylenepropionic acid), 2-D-phenylalanine, 4-isoleucine, 9-argininamide]-arginine vasopressin] ([dF]FINCPRR-NH2; linker N-5 via X1) | 8.05 ± 0.11 | 8.11 ± 0.07 | 
4 | CC[C@H](C)[C@@H]1NC(=O)[C@H](Cc2ccccc2)NC(=O)[C@@H](Cc2ccccc2)NC(=O)CC2(CCCCC2)SSC[C@@H](C(=O)N2CCC[C@H]2C(=O)N[C@@H](CCCNC(=N)N)C(=O)N[C@H](C)C(N)=O)NC(=O)[C@H](CC(N)=O)NC1=O [D-Ala(NH2), [1-(beta-mercapto-beta,beta-cyclopentamethylenepropionic acid), 2-D-phenylalanine, 4-isoleucine, 9-D-alaninamide]-arginine vasopressin] ([dF]FINCPR[dA]-NH2; linker N-5 via X1) | 7.38 ± 0.08 | 7.55 ± 0.05 | 
5 | COc1ccc(C[C@@H]2NC(=O)CC3(CCCCC3)SSC[C@@H](C(=O)N3CCC[C@H]3C(=O)N[C@@H](CCCNC(=N)N)C(=O)N[C@@H](C)C(N)=O)NC(=O)[C@H](CC(N)=O)NC(=O)[C@H](CCC(N)=O)NC(=O)[C@H](Cc3ccccc3)NC2=O)cc1 [Example 9(b), [1-(beta-mercapto-beta,beta-cyclopentamethylenepropionic acid), 2-(O-methyl)tyrosine, 9-alaninamide]-argine vasopressin] (Y(Me)FQNCPRA-NH2; linker N-5 via X1) |  |  | Anti-ADH: pA2 ([1]; text after Table 2): about 6.0; Anti-VP: pA2 ([2]; text after Table 2): 8.74±0.08
6 | CC[C@H](C)[C@H](NC(=O)[C@H](CCCNC(=N)N)NC(=O)[C@@H]1CCCN1C(=O)[C@@H]1CSSC2(CCCCC2)CC(=O)N[C@H](Cc2ccccc2)C(=O)N[C@@H](Cc2ccccc2)C(=O)N[C@@H]([C@@H](C)CC)C(=O)N[C@@H](CC(N)=O)C(=O)N1)C(N)=O [Ile(NH2), [1-(beta-mercapto-beta,beta-cyclopentamethylenepropionic acid), 2-D-phenylalanine, 4-isoleucine, 9-isoleucinamide]-arginine vasopressin] ([dF]FINCPRI-NH2; linker N-5 via X1) | 7.58 ± 0.11 | 7.04 ± 0.05 | 
7 | CC[C@H](C)[C@@H]1NC(=O)[C@H](Cc2ccccc2)NC(=O)[C@@H](Cc2ccccc2)NC(=O)CC2(CCCCC2)SSC[C@@H](C(=O)N2CCC[C@H]2C(=O)N[C@@H](CCCNC(=N)N)C(=O)N[C@@H](CCCN)C(N)=O)NC(=O)[C@H](CC(N)=O)NC1=O [Orn(NH2), [1-(beta-mercapto-beta,beta-cyclopentamethylenepropionic acid), 2-D-phenylalanine, 4-isoleucine, 9-ornithinamide]-arginine vasopressin] ([dF]FINCPR[Orn]-NH2; linker N-5 via X1) | 8.18 ± 0.09 | 7.80 ± 0.05 | 
8 | CC[C@H](C)[C@@H]1NC(=O)[C@H](Cc2ccccc2)NC(=O)[C@@H](Cc2ccccc2)NC(=O)CC2(CCCCC2)SSC[C@@H](C(=O)N2CCC[C@H]2C(=O)N[C@@H](CCCNC(=N)N)C(=O)N[C@@H](Cc2ccccc2)C(N)=O)NC(=O)[C@H](CC(N)=O)NC1=O [Phe(NH2), [1-(beta-mercapto-beta,beta-cyclopentamethylenepropionic acid), 2-D-phenylalanine, 4-isoleucine, 9-phenylalaninamide]-arginine vasopressin] ([dF]FINCPRF-NH2; linker N-5 via X1) | 7.69 ± 0.09 | 7.28 ± 0.11 | 
9 | CC[C@H](C)[C@@H]1NC(=O)[C@H](Cc2ccccc2)NC(=O)[C@@H](Cc2ccccc2)NC(=O)CC2(CCCCC2)SSC[C@@H](C(=O)N2CCC[C@H]2C(=O)N[C@@H](CCCNC(=N)N)C(=O)N2CCC[C@H]2C(N)=O)NC(=O)[C@H](CC(N)=O)NC1=O [Pro(NH2), [1-(beta-mercapto-beta,beta-cyclopentamethylenepropionic acid), 2-D-phenylalanine, 4-isoleucine, 9-prolinamide]-arginine vasopressin] ([dF]FINCPRP-NH2; linker N-5 via X1) | 7.19 ± 0.04 | 7.12 ± 0.11 | 
10 | COc1ccc(C[C@@H]2NC(=O)CC3(CCCCC3)SSC[C@@H](C(=O)N3CCC[C@H]3C(=O)N[C@@H](CCCNC(=N)N)C(=O)NCC(=O)NCCN)NC(=O)[C@H](CC(N)=O)NC(=O)[C@H](CCC(N)=O)NC(=O)[C@H](Cc3ccccc3)NC2=O)cc1 [[1-(beta-mercapto-beta,beta-cyclopentamethylenepropionic acid), 2-(O-methyl)tyrosine, 9-glycine-N-(beta-amino)ethylamide]-arginine vasopressin] (Y(Me)FQNCPRG-Ethylenediamine; linker N-5 via X1) |  |  | Anti-VP Potency pA2 ([2]; Table 4, ^+ = mixed): 8.39 ± 0.05
11 | CCCCNC(=O)[C@H](CCCNC(=N)N)NC(=O)[C@@H]1CCCN1C(=O)[C@@H]1CSSC2(CCCCC2)CC(=O)N[C@H](Cc2ccccc2)C(=O)N[C@@H](Cc2ccccc2)C(=O)N[C@@H]([C@@H](C)CC)C(=O)N[C@@H](CC(N)=O)C(=O)N1 [[1-(beta-mercapto-beta,beta-cyclopentamethylenepropionic acid), 2-D-phenylalanine, 4-isoleucine, 8-arginine-N-(n-butyl)amide, 9-desglycinamide)] vasopressin] ([dF]FINCPR-NHBu; linker N-5 via X1) |  |  | Anti-VP Potency pA2 ([2]; Table 4, ^+ = mixed): 7.13 ± 0.08
12 | N=C(N)NCCC[C@H](NC(=O)[C@@H]1CCCN1C(=O)[C@@H]1CSSC2(CCCCC2)CC(=O)N[C@@H](Cc2ccc(O)cc2)C(=O)N[C@@H](Cc2ccccc2)C(=O)N[C@@H](CCC(N)=O)C(=O)N[C@@H](CC(N)=O)C(=O)N1)C(=O)NCC(N)=O [d(CH2)5 AVP, [1-(beta-mercapto-beta,beta-cyclopentamethylenepropionic acid)]-arginine vasopressin, reference compound] (YFQNCPRG-NH2; linker N-5 via X1) |  |  | Anti-VP pA2 [2]: 8.16 ± 0.09
13 | CCCCNC(=O)CNC(=O)[C@H](CCCNC(=N)N)NC(=O)[C@@H]1CCCN1C(=O)[C@@H]1CSSC2(CCCCC2)CC(=O)N[C@@H](Cc2ccc(OC)cc2)C(=O)N[C@@H](Cc2ccccc2)C(=O)N[C@@H](CCC(N)=O)C(=O)N[C@@H](CC(N)=O)C(=O)N1 [d(CH2)5 [Tyr(Me)^2, Gly(NHBu-n)^9]AVP, [1-(beta-mercapto-beta,beta-cyclopentamethylenepropionic acid), 2-(O-methyl)tyrosine, 9-glycine-N-(n-butyl)amide]-arginine vasopressin] (Y(Me)FQNCPRG-NHBu; linker N-5 via X1) |  |  | Anti-VP Potency pA2 ([2]; Table 4, ^+ = mixed): 8.44 ± 0.07
14 | N=C(N)NCCC[C@H](NC(=O)[C@@H]1CCCN1C(=O)[C@@H]1CSSC2(CCCCC2)CC(=O)N[C@@H](Cc2ccc(O)cc2)C(=O)N[C@@H](Cc2ccccc2)C(=O)N[C@@H](CCC(N)=O)C(=O)N[C@@H](CC(N)=O)C(=O)N1)C(=O)O [desGly(NH2)^9 d(CH2)5 AVP, [1-(beta-mercapto-beta,beta-cyclopentamethylenepropionic acid), 9-desglycinamide]-arginine vasopressin] (YFQNCPR-OH; linker N-5 via X1) |  |  | Anti-VP pA2 [2]: 7.88 ± 0.06
15 | N=C(N)NCCC[C@H](NC(=O)[C@@H]1CCCN1C(=O)[C@@H]1CSSC2(CCCCC2)CC(=O)N[C@@H](Cc2ccc(O)cc2)C(=O)N[C@@H](Cc2ccccc2)C(=O)N[C@@H](CCC(N)=O)C(=O)N[C@@H](CC(N)=O)C(=O)N1)C(N)=O [desGly^9 d(CH2)5 AVP, [1-(beta-mercapto-beta,beta-cyclopentamethylenepropionic acid), 9-desglycine]-arginine vasopressin] (YFQNCPR-NH2; linker N-5 via X1) |  |  | Anti-VP pA2 [2]: 8.40 ± 0.06
